Measured values taken from patent US10202344B2, “Aryl substituted indoles and the use thereof” (Purdue Pharma L.P., priority 2010, dated 2019).
Where two headings read alike, the source gives them in different places.

Experiments:
[1] = biological target: human Nav1.7 (Homo sapiens (Human), UniProt Q15858); test: FLIPR or FLIPR TETRA sodium dye assay with KCl and test article pre-incubation; assay type: cell-based; details: read-out: FLIPR Nav1.7 IC50 (μM) ± SEM
[2] = biological target: hNav1.7 (Homo sapiens (Human), UniProt Q15858); test: Electrophysiology (EP) assay, whole-cell patch clamp; assay type: cell-based; details: hNav1.7 expressing HEK-293 cells, read-out: EP Nav1.7 Ki
Procedure: Cells: The hNav1.7 expressing HEK-293 cells were plated on 35 mm culture dishes pre-coated with poly-D-lysine in standard DMEM culture media (Mediatech, Inc., Herndon, Va.) and incubated in a 5% CO2 incubator at 37° C. Cultured cells were used approximately 12-48 hours after plating.
Electrophysiology: On the day of experimentation, the 35 mm dish was placed on the stage of an inverted microscope equipped with a perfusion system that continuously perfuses the culture dish with fresh recording media. A gravity driven superfusion system was used to apply test solutions directly to the cell under evaluation. This system consists of an array of glass pipette glass connected to a motorized horizontal translator. The outlet of the shooter was positioned approximately 100 μm from the cell of interest.
Gigaseals were formed and the whole-cell configuration was established in voltage clamp mode, and membrane currents generated by hNav1.7 were recorded in gap-free mode. […] Signals were sampled at 50 kHz and low pass filtered at 3 kHz.
The voltage clamp protocol to examine hNav1.7 currents was as follows. […] The amount of inhibition produced by the test compound was determined by comparing the current amplitude elicited by the test pulse in the absence and presence of the compound. […]

[3] = recombinant human Nav1.7 in HEK293 cells, sodium dye assay with KCl

Sequence of human Nav1.7 (Q15858 other isoform, or with tags, fused parts or gaps): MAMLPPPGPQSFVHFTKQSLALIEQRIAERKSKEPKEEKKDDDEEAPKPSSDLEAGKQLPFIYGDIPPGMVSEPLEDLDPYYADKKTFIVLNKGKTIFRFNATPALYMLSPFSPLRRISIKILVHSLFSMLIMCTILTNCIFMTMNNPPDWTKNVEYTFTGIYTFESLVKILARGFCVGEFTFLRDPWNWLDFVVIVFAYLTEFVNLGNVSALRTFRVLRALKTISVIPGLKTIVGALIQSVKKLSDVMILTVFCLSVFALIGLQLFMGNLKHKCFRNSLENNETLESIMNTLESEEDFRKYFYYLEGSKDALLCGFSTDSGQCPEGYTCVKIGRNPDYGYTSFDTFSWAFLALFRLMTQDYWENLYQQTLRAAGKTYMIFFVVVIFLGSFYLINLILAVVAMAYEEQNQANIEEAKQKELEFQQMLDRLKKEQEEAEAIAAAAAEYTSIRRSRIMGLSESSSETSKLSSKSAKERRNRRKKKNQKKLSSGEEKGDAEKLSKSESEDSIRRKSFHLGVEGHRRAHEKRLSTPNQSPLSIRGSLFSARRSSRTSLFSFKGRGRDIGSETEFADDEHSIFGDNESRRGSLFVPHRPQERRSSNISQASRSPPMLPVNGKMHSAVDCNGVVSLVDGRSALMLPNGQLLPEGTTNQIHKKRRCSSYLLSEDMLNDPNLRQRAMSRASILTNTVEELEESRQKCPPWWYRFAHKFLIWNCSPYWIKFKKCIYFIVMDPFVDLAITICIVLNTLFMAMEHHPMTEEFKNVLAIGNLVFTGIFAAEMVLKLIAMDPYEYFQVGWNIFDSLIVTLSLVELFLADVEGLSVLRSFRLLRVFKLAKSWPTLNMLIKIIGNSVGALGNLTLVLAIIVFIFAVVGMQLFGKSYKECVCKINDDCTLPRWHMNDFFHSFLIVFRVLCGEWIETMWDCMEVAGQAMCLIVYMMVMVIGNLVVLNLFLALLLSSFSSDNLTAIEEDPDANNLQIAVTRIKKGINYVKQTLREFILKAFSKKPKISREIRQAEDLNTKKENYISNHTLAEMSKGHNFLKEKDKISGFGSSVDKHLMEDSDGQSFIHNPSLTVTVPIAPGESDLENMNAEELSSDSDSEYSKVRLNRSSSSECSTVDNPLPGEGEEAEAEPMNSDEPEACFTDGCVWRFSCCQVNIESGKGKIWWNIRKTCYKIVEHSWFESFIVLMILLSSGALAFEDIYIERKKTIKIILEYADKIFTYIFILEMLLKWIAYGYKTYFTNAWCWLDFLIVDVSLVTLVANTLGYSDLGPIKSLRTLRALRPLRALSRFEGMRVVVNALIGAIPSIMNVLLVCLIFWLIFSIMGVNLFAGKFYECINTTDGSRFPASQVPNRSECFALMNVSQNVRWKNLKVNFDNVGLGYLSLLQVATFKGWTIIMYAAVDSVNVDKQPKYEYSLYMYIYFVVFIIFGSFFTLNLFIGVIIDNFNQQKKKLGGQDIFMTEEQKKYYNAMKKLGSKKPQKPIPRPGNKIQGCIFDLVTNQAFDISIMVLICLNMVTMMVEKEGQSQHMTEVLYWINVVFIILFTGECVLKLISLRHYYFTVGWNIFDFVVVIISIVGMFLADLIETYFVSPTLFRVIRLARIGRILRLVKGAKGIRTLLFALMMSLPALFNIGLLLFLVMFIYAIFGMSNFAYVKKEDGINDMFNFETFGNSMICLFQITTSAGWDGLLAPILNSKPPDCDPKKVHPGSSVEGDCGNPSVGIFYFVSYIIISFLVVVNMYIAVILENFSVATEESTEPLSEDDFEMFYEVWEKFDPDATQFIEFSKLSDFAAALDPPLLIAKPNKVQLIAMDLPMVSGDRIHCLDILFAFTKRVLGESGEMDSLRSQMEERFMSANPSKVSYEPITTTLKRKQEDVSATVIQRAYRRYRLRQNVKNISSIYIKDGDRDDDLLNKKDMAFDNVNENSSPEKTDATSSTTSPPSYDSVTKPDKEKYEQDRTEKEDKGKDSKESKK
Sequence of hNav1.7 (Q15858 other isoform, or with tags, fused parts or gaps): as above

| Molecule | IC50 [1, 3] [µM] | Ki [2] [nM] | IC50 [1] [µM] |
| --- | --- | --- | --- |
| CN(C)CCc1cn(-c2ccc(Oc3ccccc3)cc2)c2ccc(C[C@H]3COC(=O)N3)cc12 [Compound 45, (S)-4-{[3-(2-(Dimethylamino)ethyl)-1-(4-phenoxyphenyl)-1H-indol-5-yl]methyl}oxazolidin-2-one] | 1.9 ± 0.636 | 1310 |  |
| N#Cc1cccc(Oc2ccc(-n3cc(C[C@H](N)CO)c4ccccc43)cc2)c1 [Compound 57, (S)-5-{4-[3-(2-Amino-3-hydroxypropyl)-1H-indol-1-yl]phenoxy}benzonitrile] | 0.383 ± 0.081 | 50 |  |
| NC(=O)c1nn(-c2ccc(Oc3ccc(C(F)(F)F)cc3)cc2)c2ccc(F)cc12 [Compound 150, 5-fluoro-1-(4-(4-(trifluoromethyl)phenoxy)phenyl)-1H-indazole-3-carboxamide] | 6.97 ± 0.934 |  |  |
| CCOC(=O)C(Cc1c[nH]c2ccc(-c3ccc(Oc4ccccc4)cc3)cc12)[N+](=O)[O-] (centres unmarked) [Compound 6, 2-Nitro-3-[5-(4-phenoxyphenyl)-1H-indol-3-yl]propionic acid ethyl ester] | 5.14 ± 0.954 |  |  |
| N#Cc1cc(Oc2ccc(-n3cc(C(=O)C(N)=O)c4ccccc43)cc2)ccc1C(F)(F)F [Compound 59, 2-(1-(4-(3-Cyano-4-(trifluoromethyl)phenoxy)phenyl)-1H-indol-3-yl)-2-oxoacetamide] |  |  | 3.54 ± 0.459 |
| O=C(NCCO)c1nn(-c2ccc(Oc3ccccc3)cc2)c2ccccc12 [Compound 144, N-(2-hydroxyethyl)-1-(4-phenoxyphenyl)-1H-indazole-3-carboxamide] |  |  | 0.16 ± 0.049 |
| N#Cc1cc(Oc2ccc(-n3cc(C(=O)C(=O)O)c4cc([C@@H](O)CO)ccc43)cc2)ccc1C(F)(F)F [Compound 98, (R)-2-(1-(4-(3-cyano-4-(trifluoromethyl)phenoxy)-phenyl)-5-(1,2-dihydroxyethyl)-1H-indol-3-yl)-2-oxoacetic acid] | > 20 |  |  |
| N#Cc1cc(Oc2ccc(-n3cc(C(=O)C(=O)NC[C@H](O)CO)c4ccccc43)cc2)ccc1C(F)(F)F [Compound 68, (S)-2-(1-(4-(3-cyano-4-(trifluoromethyl)phenoxy)-phenyl)-1H-indol-3-yl)-N-(2,3-dihydroxypropyl)-2-oxoacetamide] | 0.572 ± 0.137 |  |  |
| N#Cc1cc(Oc2ccc(-n3cc(C[C@H]4COC(=O)N4)c4ccccc43)cc2)ccc1C(F)(F)F [Compound 46, (S)-5-{4-[3-((2-Oxooxazolidin-4-yl)methyl)-1H-indol-1-yl]phenoxy}-2-(trifluoromethyl)benzonitrile] | 0.715 ± 0.126 |  |  |
| N#Cc1cc(Oc2ccc(-n3nc(C(N)=O)c4ccccc43)cc2)ccc1C(F)(F)F [Compound 152, 1-(4-(3-cyano-4-(trifluoromethyl)phenoxy)-phenyl)-1H-indazole-3-carboxamide] | 0.602 ± 0.053 |  |  |
| (S)-3-(1-(4-(4-fluorophenoxy)phenyl)-1H-pyrrolo[2,3-c]pyridin-3-yl)propane-1,2-diol [Compound 170] | 1.38 ± 0.542 |  |  |
| NCCc1cn(-c2ccc(Oc3ccccc3)cc2)c2ccccc12 [Compound 43, 2-(1-(4-Phenoxyphenyl)-1H-indol-3-yl)ethanamine] | 0.684 ± 0.041 |  |  |
